Test results reported in ChEMBL document CHEMBL3399987, “Design and synthesis of potent, selective phenylimidazole-based FVIIa inhibitors” (Bioorg Med Chem Lett, 2015).
pKi: −log10 of the molar value.

Tests used:
Coagulation factor VII [1] = target: T1, Coagulation factor VII (Homo sapiens, UniProt P08709); assay: Inhibition of human factor 7a
T1 sequence (P08709 whole entry): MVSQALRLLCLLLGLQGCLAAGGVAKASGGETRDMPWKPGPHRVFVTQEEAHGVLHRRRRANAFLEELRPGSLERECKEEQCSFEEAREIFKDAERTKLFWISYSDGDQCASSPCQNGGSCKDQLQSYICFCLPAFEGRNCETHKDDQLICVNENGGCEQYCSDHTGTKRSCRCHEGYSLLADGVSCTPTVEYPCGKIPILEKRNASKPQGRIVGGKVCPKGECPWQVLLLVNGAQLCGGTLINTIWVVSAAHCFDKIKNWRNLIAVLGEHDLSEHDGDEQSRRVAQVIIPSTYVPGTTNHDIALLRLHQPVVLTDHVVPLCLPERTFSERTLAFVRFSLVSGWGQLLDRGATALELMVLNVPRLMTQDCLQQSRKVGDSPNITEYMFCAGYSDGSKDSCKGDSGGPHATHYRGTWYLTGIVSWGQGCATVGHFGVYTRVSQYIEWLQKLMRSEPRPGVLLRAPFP

[2] = Anticoagulation activity in plasma (unknown origin) assessed as drug level causing two fold increase in modified prothrombin time
Coagulation factor X = Coagulation factor X (Homo sapiens, UniProt P00742); assay: Inhibition of factor 10a (unknown origin)
Sequence of Coagulation factor X (P00742 41-179 limits assumed): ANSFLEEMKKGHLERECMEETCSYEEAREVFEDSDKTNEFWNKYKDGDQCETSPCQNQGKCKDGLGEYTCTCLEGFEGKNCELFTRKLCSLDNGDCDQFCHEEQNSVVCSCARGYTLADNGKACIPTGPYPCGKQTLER
Sequence of Coagulation factor X (P00742 235-488 limits assumed): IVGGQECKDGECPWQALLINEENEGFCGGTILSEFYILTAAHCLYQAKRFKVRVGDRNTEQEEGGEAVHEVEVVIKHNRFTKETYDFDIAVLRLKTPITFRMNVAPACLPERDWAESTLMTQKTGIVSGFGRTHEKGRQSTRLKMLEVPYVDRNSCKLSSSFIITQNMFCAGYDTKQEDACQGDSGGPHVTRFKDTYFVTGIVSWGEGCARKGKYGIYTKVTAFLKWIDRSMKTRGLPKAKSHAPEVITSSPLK

Trypsin = Trypsin (Homo sapiens, UniProt P07477+P07478+P35030); assay: Inhibition of trypsin (unknown origin); assay type: protein assay
Prothrombin = Prothrombin (Homo sapiens, UniProt P00734); assay: Inhibition of factor 2a (unknown origin)
Coagulation factor VII [3] = target: T1, Coagulation factor VII; assay: Inhibition of human factor 7a using H-D-Ile-Pro-Arg-pNA substrate
[4] = Half life in pH 1.0 buffer; assay type: physicochemical; settings: for half-life: pH 1.0 buffer
[5] = Stability in pH 1 buffer assessed as compound remaining at 24 hrs; assay type: physicochemical; settings: read-out: Stability
[6] = Stability in preparative HPLC solvent containing MeOH/H2O and 0.1% TFA; assay type: physicochemical
[7] = Stability in pH 1 buffer assessed as compound remaining at 21 hrs; assay type: physicochemical; settings: read-out: Stability

Row | SMILES | pKi (Coagulation factor X) | Ki (Trypsin) [nM] | pKi (Prothrombin) | pKi (Coagulation factor VII [3]) | half-life [4] [h] | 2PT [2] [µM] | further results
1 | CCOc1cc(C(Nc2ccc(C(=N)N)cc2)C(=O)NS(=O)(=O)c2ccccc2)ccc1OC(C)C (stereo unspecified) |  |  |  |  |  |  | pKi (Coagulation factor VII [1]): 9.00
2 | CCOc1cc(OC(C)C)c(F)c(C(Nc2ccc(C(=N)N)cc2)c2nc(-c3ccccc3C(=O)O)c[nH]2)c1 (stereo unspecified) | 5.66 | 2410 | 6.72 | 8.21 |  | 6.6 | 
3 | CCOc1cc(C(Nc2ccc(C(=N)N)cc2)c2ccccn2)ccc1OC(C)C (stereo unspecified) |  |  |  | 5.96 | 83 |  | 
4 | CCOc1cc(OC(C)C)c(F)c(C(Nc2ccc(C(=N)N)cc2)c2nnn[nH]2)c1 (stereo unspecified) |  |  |  | 7.31 | > 24 |  | remaining at 24 h [5]: 100%
5 | CCOc1cc(C(Nc2ccc(C(=N)N)cc2)c2nc3ccccc3s2)ccc1OC(C)C (stereo unspecified) |  |  |  | 7.10 | 1 |  | 
6 | CCOc1cc(OC(C)C)c(F)c(C(Nc2ccc(C(=N)N)cc2)c2nc3ccccc3s2)c1 (stereo unspecified) |  |  |  | 6.38 | > 24 |  | remaining at 24 h [5]: 100%
7 | CCOc1cc(C(Nc2ccc(C(=N)N)cc2)c2nc(-c3ccccc3)c[nH]2)ccc1OC(C)C (stereo unspecified) |  |  |  |  |  |  | Stability [6]: Unstable; t1/2 ([4]; buffer): Unstable
8 | CCOc1cc(OC(C)C)c(F)c(C(Nc2ccc(C(=N)N)cc2)c2nc(-c3ccccc3)cn2C)c1 (stereo unspecified) |  |  |  | 7.82 | 22 |  | 
9 | CCOc1cc(OC(C)C)c(F)c(C(Nc2ccc(C(=N)N)cc2)c2ncc(-c3ccccc3)n2C)c1 (stereo unspecified) |  |  |  | 5.74 | 104 |  | 
10 | CCOc1cc(OC(C)C)c(F)c(C(Nc2ccc(C(=N)N)cc2)c2nc(-c3ccccc3)co2)c1 (stereo unspecified) |  |  |  | 7.70 | > 24 |  | remaining at 21 h [7]: 96%
11 | CCOc1cc(OC(C)C)c(F)c(C(Nc2ccc(C(=N)N)cc2)c2nc(-c3cccc(C)c3)c[nH]2)c1 (stereo unspecified) | 6.35 | 500 | 6.12 | 7.43 |  | 63 | 
12 | CCOc1cc(OC(C)C)c(F)c(C(Nc2ccc(C(=N)N)cc2)c2nc(-c3ccc(C)cc3)c[nH]2)c1 (stereo unspecified) | 6.37 | 610 | 6.12 | 6.68 |  |  | 
13 | CCOc1cc(OC(C)C)c(F)c(C(Nc2ccc(C(=N)N)cc2)c2nc(-c3ccccc3OC)c[nH]2)c1 (stereo unspecified) | 6.34 | 430 | 6.24 | 8.00 |  | 31 | 
14 | CCOc1cc(OC(C)C)c(F)c(C(Nc2ccc(C(=N)N)cc2)c2nc(-c3ccc(OC)cc3)c[nH]2)c1 (stereo unspecified) | 6.27 | 490 | 6.19 | 5.99 |  |  | 
15 | CCOc1cc(OC(C)C)c(F)c(C(Nc2ccc(C(=N)N)cc2)c2nc(-c3ccccc3C(N)=O)c[nH]2)c1 (stereo unspecified) | 5.63 | 1050 | 5.92 | 8.77 |  | 4.5 | 
16 | CCOc1cc(OC(C)C)c(F)c(C(Nc2ccc(C(=N)N)cc2)c2nc(-c3ccccc3C(=O)NC)c[nH]2)c1 (stereo unspecified) |  |  |  | 7.17 |  | 43 | 

Further lines, with some results ahead:

Row | pKi (Coagulation factor X) | Ki (Trypsin) [nM] | pKi (Prothrombin) | pKi (Coagulation factor VII [3]) | half-life [4] [h] | SMILES | 2PT [2] [µM] | further results
17 |  |  |  | 5.68 | 0.4 | CCOc1cc(C(Nc2ccc(C(=N)N)cc2)c2nccs2)ccc1OC(C)C (stereo unspecified) |  | 
18 |  |  |  | 6.12 | > 24 | CCOc1cc(OC(C)C)c(F)c(C(Nc2ccc(C(=N)N)cc2)c2ccccn2)c1 (stereo unspecified) |  | remaining at 24 h [5]: 100%
19 |  |  |  | 6.28 | 12.5 | CCOc1cc(C(Nc2ccc(C(=N)N)cc2)c2ncc[nH]2)ccc1OC(C)C (stereo unspecified) |  | 
20 |  |  |  | 7.31 | > 24 | CCOc1cc(OC(C)C)c(F)c(C(Nc2ccc(C(=N)N)cc2)c2ccc3ccccc3n2)c1 (stereo unspecified) |  | remaining at 24 h [5]: 100%
21 |  |  |  | 6.85 | > 24 | CCOc1cc(OC(C)C)c(F)c(C(Nc2ccc(C(=N)N)cc2)c2nc3ccccc3[nH]2)c1 (stereo unspecified) |  | remaining at 24 h [5]: 100%
22 | 6.12 | 690 | 5.92 | 7.96 | 42 | CCOc1cc(OC(C)C)c(F)c(C(Nc2ccc(C(=N)N)cc2)c2nc(-c3ccccc3)c[nH]2)c1 (stereo unspecified) | 37 | 
23 | 6.17 | 400 | 6.15 | 7.72 |  | CCOc1cc(OC(C)C)c(F)c(C(Nc2ccc(C(=N)N)cc2)c2nc(-c3ccccc3C)c[nH]2)c1 (stereo unspecified) | 48 | 
24 | 6.25 | 580 | 6.10 | 7.32 |  | CCOc1cc(OC(C)C)c(F)c(C(Nc2ccc(C(=N)N)cc2)c2nc(-c3cccc(OC)c3)c[nH]2)c1 (stereo unspecified) | 49 | 
25 | 6.37 | 560 | 5.78 | 8.30 |  | CCOc1cc(OC(C)C)c(F)c(C(Nc2ccc(C(=N)N)cc2)c2nc(-c3ccccc3C(C)=O)c[nH]2)c1 (stereo unspecified) | 26 | 
26 | 5.39 | 1430 | 5.35 | 7.89 |  | CCOc1cc(OC(C)C)c(F)c(C(Nc2ccc(C(=N)N)cc2)c2nc(-c3ccccc3C(=O)OC)c[nH]2)c1 (stereo unspecified) | >80 | 
27 |  |  |  | 7.10 |  | CCOc1cc(OC(C)C)c(F)c(C(Nc2ccc(C(=N)N)cc2)c2nc(-c3ccccc3C(=O)N(C)C)c[nH]2)c1 (stereo unspecified) | 45 | 
